Several values for one entry are separate records, joined by “and”; a condition that tells them apart may be missing. Equal entries are not always repeated.
Key:
Raji = experiment: In vitro cytotoxicity against Raji cells from human lymphoma; assay type: functional, cell-based
LFCl2A = experiment: In vitro cytotoxicity against LFCL2A cells from rat hepatocarcinoma; assay type: functional, cell-based
[1] = Rattus norvegicus, LFCl2A, read-out: IC50

Structure (SMILES) | IC50 (Raji; raji) | IC50 (Raji; Homo sapiens, Raji) | other results
CC/C=C\C/C=C\C/C=C\C/C=C\C/C=C\C/C=C\CCC(=O)OC[C@H]1O[C@H](C2CCCC=C2C)C=C[C@@]12CO2 (stereo in doubt; 15) | 62 µM | – | –
CC1=CCCCC1[C@@H]1C=C[C@@]2(CO2)[C@@H](CO)O1 (stereo not given in full) | – | 255 µM and 60.3 µg/mL | –
CC/C=C\C/C=C\C/C=C\C/C=C\C/C=C\C/C=C\CCC(=O)OC[C@H]1O[C@H](C2CCCC=C2C)C=C[C@@]12CO2 (stereo in doubt; 16) | – | 58 µM and 0.106 µg/mL | –
C[C@@H]1O[C@@H](CC2=CCCCC2)C=C[C@]12CO2 | – | – | IC50 (LFCl2A; [1]): 128 µM; IC50 (LFCl2A; lfcl2a): 28.3 µg/mL
CCCCC/C=C\C/C=C\C/C=C\C/C=C\CCCC(=O)OC[C@H]1O[C@H](C2CCCC=C2C)C=C[C@@]12CO2 (stereo in doubt; 18) | 147 µM | – | –
O=C(O)CCCc1ccc(N(CCCl)CCCl)cc1 [CHLORAMBUCIL] | – | 298 µM | –
C[C@@H]1O[C@@H](CC2=CCCCC2)C=C[C@@]12CO2 | – | – | IC50 (LFCl2A; [1]): 155 µM; IC50 (LFCl2A; lfcl2a): 34.3 µg/mL
CCCCC/C=C\C/C=C\C/C=C\C/C=C\CCCC(=O)OC[C@H]1O[C@H](C2CCCC=C2C)C=C[C@@]12CO2 (stereo in doubt; 17) | 66 µM | – | –
